Consider three compounds from patent US8076346B2 (priority 2000, dated 2011).

Usually Cmax stands for the peak of the concentration-time curve. A word on the Tmax: it is the time from dosing to the highest level. One may read the half-life as the time in which the quantity being followed falls by half. A higher half-life goes with slow loss.

Data set [1] in a line: Pharmacokinetics of DPB after oral DPB or NaDPB and IV NaDPB in Beagle dogs. It is filed as in vivo. As to conditions: dog, in vivo, oral 75 mg/kg; for AUC(0-t): Beagle, po, 75 mg/kg. The procedure: (§1) In accordance with the present invention, pharmacokinetic parameters were calculated using standard non-compartmental methods, as implemented in WinNonlin™ 4.0.1. […] The mean, SD and CV (%) were used to calculate the AUC0-t (μg·h/mL), C. (μg/ml) (the maximum observed concentration), Tmax (hours) (the time to reach that peak concentration) and Kel (the elimination rate constant) for each animal and each analyte.
(§2) AUC0-t was calculated using the linear trapezoidal rule, which employs an approximate integration formula. The area of each trapezoid was calculated, and the sum of all the areas of all the trapezoids yielded an estimate of the true area under the curve. (See, Gibaldi et al. Pharmacokinetics. 2nd Ed. Marcel Dekker, Inc., 1982; Yeh et al., A comparison of numerical integrating algorithms by trapezoidal, lagrange, and spline approximations. J. Pharmacokinet Biopharm. 6: 79 (1978), the disclosure of which is herein incorporated by reference.) Cmax and Tmax were then determined for each concentration vs. time profile. Elimination rate constant (Kel) was calculated using regression analyses on the natural log (ln) of plasma concentration values (y) versus time (x).
We examined the delivery of DPB to the vascular compartment by administrating directly DPB and compared it with the sodium salt of DPB in dogs. This study compared the pharmacokinetics of DPB after oral administration of a single dose of DPB (75 mg/kg) or sodium salt of DPB (75 mg/kg) in Beagle dogs. Twenty-eight Beagle dogs were administered DPB and sodium salt of DPB by a single oral gavage (n=24). Blood samples were obtained pre-dose and 0.5, 1, 2, 3, 4, 6, 12, 18, 24, 36 and 48 hours after dosing. DPB was quantified in plasma using HPLC (LLOQ=0.25 μg/mL).
(§3) We calculated AUC0-t for DPB at various times (24, 36 and 48 hours) after oral administrations of DPB and sodium salt of DPB.

A short description of data set [2]: Pharmacokinetics of DPB after oral DPB or NaDPB and IV NaDPB in Sprague-Dawley rats. It is filed as in vivo. As to conditions: rat, in vivo, oral 150 mg/kg; for AUC(0-t): Sprague-Dawley, po, 150 mg/kg. The procedure:
as §1, §2
We examined the delivery of DPB to the vascular compartment by administrating directly DPB and compared it with the sodium salt of DPB. This study compared the pharmacokinetics of DPB after oral administration of DPB (150 mg/kg) and sodium salt of DPB (150 mg/kg) in rats. Fifty-four rats were administered DPB and sodium salt of DPB by a single oral gavage (n=54). Blood samples were obtained (approximately 0.5 mL each) were collected following each treatment from animal via the jugular vein. Blood samplings from groups of 3 rats/sex/time point were collected at various times after dosing, in order to provide the complete time-points of pre-dose, 0, 0.5, 1, 2, 3, 4, 6, 12, 18, 24, 36 and 48 hours after dosing. Each blood sample was collected into a tube containing lithium heparin and the samples were spun in a refrigerated centrifuge. The resultant plasma was stored at −80° C. prior to analysis. DPB was quantified in plasma using HPLC (LLOQ=0.25 μg/mL).
as §3

Data set [3] is described as follows: Brain concentration of DPB after oral DPB or NaDPB and IV NaDPB in Sprague-Dawley rats. It is filed as in vivo. As to conditions: male, oral 150 mg/kg, 48 hr. The procedure:
In this study, we measured the brain concentration of DPB. Brains were collected as soon as possible after euthanasia from each rat. They were stored in a freezer at −80° C. prior to determination of DPB brain tissue concentrations. Table 6 summarizes the brain concentrations of DPB after oral administration of DPB and sodium salt of DPB in Sprague-Dawley rats.

The test system of data set [4] is seizure induced either by electroshock or pentylenetetrazole. As to conditions: mice, given by stomach tube; cited from earlier work.
A further data set in a line: in vivo. As to conditions: dog, analyte MMMDPB. The procedure: as §1, §2
Blood samples were obtained pre-dose and 0.25, 0.5, 1, 2, 3, 4, 6, 9, 12, 15, 18, and 24 hours after dosing. Venous blood (˜1 mL) were drawn and collected in lithium heparin (anticoagulant). Blood samples were spun in a refrigerated centrifuge and plasma were stored at −80° C. prior to analysis. […] Calibration curves were obtained using a weighted (1/C^2) least squares linear regression analysis of peak area ratio (analyte/internal standard) versus the nominal concentration of the calibration standards. Concentrations were obtained by interpolation from the run defined calibration curve. Regressions and figures were generated by PE Sciex Analyst Version 1.2 software.
Plasma samples were thawed and subjected to solid phase extraction with 2 mL acetonitrile prior to HPLC method with Tandem Mass Spectrometry Detection. Chromatographic conditions were performed as followed: […]

Where [5] appears, read: Sprague-Dawley rats, female, analyte DPB in plasma.
Setting [6] is: Sprague-Dawley rats, male, analyte DPB in plasma.

For `O=C1NC(=O)C(c2ccccc2)(c2ccccc2)C(=O)N1` [DPB, 5,5-diphenyl barbituric acid, reference compound], the AUC(0-t) in data set [1] (analyte DPB in plasma, read-out: AUC0-t) amounted to 222 µg·h/mL; in data set [1] (analyte DPB, read-out: AUC0-24), 231 µg·h/mL; in data set [1] (analyte DPB, read-out: AUC0-36) it was 234 µg·h/mL; in data set [1] (analyte DPB, read-out: AUC0-48) it was 234 µg·h/mL; in data set [2] (female, Sprague-Dawley rats, female, analyte DPB in plasma, read-out: AUC0-t) it was 1950 µg·h/mL; in data set [2] (female, female, analyte DPB, read-out: AUC0-36) it was 1600 µg·h/mL. Further, the AUC(0-t) in data set [2] (female, female, analyte DPB, read-out: AUC0-48) turned out to be 1950 µg·h/mL; in data set [2] (male, Sprague-Dawley rats, male, analyte DPB in plasma, read-out: AUC0-t), 776 µg·h/mL; in data set [2] (male, male, analyte DPB, read-out: AUC0-36) it was 757 µg·h/mL; in data set [2] (male, male, analyte DPB, read-out: AUC0-48), 776 µg·h/mL. The Cmax in data set [1] (analyte DPB in plasma) stood at 18700 ng/mL; in data set [2] (setting [5]), 74000 ng/mL; in data set [2] (setting [6]), 38300 ng/mL. Besides, the Tmax in data set [1] (analyte DPB in plasma) turned out to be 6.5 h; in data set [2] (setting [5]) it was 12 h; in data set [2] (setting [6]), 6 h. Moreover, the half-life in data set [1] (analyte DPB in plasma) was 4 h; in data set [2] (setting [5]), 33.2 h; in data set [2] (setting [6]) it was 6.6 h. Besides, the “Mean brain concentration of DPB” value in data set [3] is “BQL”. Besides, the protection from seizure result in data set [4] is listed as “effective”.
Take `COCN1C(=O)NC(=O)C(c2ccccc2)(c2ccccc2)C1=O` [MMMDPB, monomethoxymethyl-5,5-diphenyl barbituric acid, reference compound]: the bioavailability in the data set “in vivo” (Beagle, Beagle dogs, oral 30 mg/kg vs IV 15 mg/kg, read-out: F (absolute bioavailability)) was 107%; in “in vivo” (Beagle, po, 30 mg/kg, mean oral bioavailability of MMMDPB, Beagle dogs, oral 30 mg/kg, mean) it was 107%; in “in vivo” (Beagle, po, 30 mg/kg, oral bioavailability of MMMDPB, range, Beagle dogs, oral 30 mg/kg, range over animals), 43 to 177%.
In the case of `COCN1C(=O)NC(=O)C(c2ccccc2)(c2ccccc2)C1=O.[Na]` [NaMMMDPB, sodium monomethoxymethyl-5,5-diphenyl barbiturate], the bioavailability in “in vivo” (in vivo, 30 mg/kg, oral 30 mg/kg vs IV 15 mg/kg, read-out: F (absolute bioavailability)) is 60%; in “in vivo” (in vivo, po, 30 mg/kg, mean oral bioavailability of MMMDPB, oral 30 mg/kg, mean), 60%; in the data set “in vivo” (in vivo, po, 30 mg/kg, oral bioavailability of MMMDPB, range, oral 30 mg/kg, range over animals), 34 to 99%.
